Test results reported in patent publication US8735150B2, “Methods for detecting embryonic stem cells, induced pluripotent stem cells, or cells undergoing reprogramming to produce induced pluripotent stem cells” (New York University, priority 2010, dated 2014).

Key:
[1] = tested on: mESC; assay: Flow cytometry of mESC and MEF incubated separately with rosamine hit compounds (secondary screening); type: cell-based, mouse; settings: 500 nM
Method: FIG. 5 is a table of flow cytometry results, which show the structure-cell selectivity relationship in CDy1 analogues. The ratios of mESC to MEF fluorescence mean values obtained from flow cytometry were used for cell selectivity analysis. The cells were incubated with 500 nM of each compound for one hour and washed with phosphate buffered saline (PBS) for flow cytometry.
MEFs and mESCs were cultured in 60 mm culture dishes for 24 hours in the presence of 500 nM of hit compounds including CDy1. The cells were harvested by trypsin treatment, washed with PBS, and resuspended in PBS. The fluorescence intensity of the cells was measured with flow cytometry (BD™ LSR II) with PE-Texas Red filter (excitation at 488 nm, emission at 615 nm). The dot plot images for each cell type were overlaid using FlowJo7 (Tree Star Inc., Ashland, Oreg.). […]
For a high-throughput screening, mESC and MEF feeder cells were incubated with 280 rosamine compounds at a concentration of 500 nM in 384-well microplates. After 0.5 hours, 24 hours, and 48 hours, TRITC fluorescence and bright field images were taken using an ImageXpress^MICRO imaging system. […] As a secondary screening, mESC and MEF were incubated separately with each of the hit compounds and these were analyzed using flow cytometry (see work flow set out in FIGS. 1A-1B; results shown in FIGS. 2A-2C and FIG. 3).

[2] = tested on: mESC; assay: FACS isolation of mESC from a MEF and mESC mixture stained with CDy1; Nanog RT-PCR and colony forming assay; type: cell-based, mouse
Method: MEFs and mESCs were cultured in 60 mm culture dishes for 24 hours in the presence of 500 nM of hit compounds including CDy1. The cells were harvested by trypsin treatment, washed with PBS, and resuspended in PBS. The fluorescence intensity of the cells was measured with flow cytometry (BD™ LSR II) with PE-Texas Red filter (excitation at 488 nm, emission at 615 nm). The dot plot images for each cell type were overlaid using FlowJo7 (Tree Star Inc., Ashland, Oreg.). For FACS, MEF and mESC were cultured in the same dish and the sample was prepared as described above for flow cytometry. The cells were gated into SSC^low CDy1^bright and SSC^high CDy1^dim regions and were collected using a FACS machine (BD FACS Aria™, BD Biosciences, Franklin Lakes, N.J.).
Total RNA was isolated from cells using RNeasy Mini Kit (QIAGEN Inc.) according to the manufacturer's instruction. cDNA was synthesized from 1 μg of total RNA using REVERTAID™ H Minus First strand cDNA Synthesis kit (Fermentas, Glen Burnie, Md.) and amplified by PCR using GOTAQ® Green Master Mix (Promega, Fitchburg, Wis.). The PCR conditions were as follows: 30 seconds denaturation at 95° C., 30 seconds annealing at 60° C., and a final 30 seconds of extension at 72° C. The sequences of primers used in this study are: Nanog (GenBank Accession No. NM_028016.1): sense 5′-[…]-3′ (SEQ ID NO:1), antisense 5′-[…]-3′ (SEQ ID NO:2); GAPDH (GenBank Accession No. XM—001473443.1): sense 5′-[…]-3′ (SEQ ID NO:3), antisense 5′-[…]-3′ (SEQ ID NO:4). The PCR products obtained after 25 cycles were resolved on 1% agarose gels, visualized by ethidium bromide staining, and the images were taken using a Gel Logic 200 Imaging System (Kodak, Rochester, N.Y.).
To evaluate the capability of CDy1 to isolate ESC from a mixed cell population, a MEF and mESC mixture was stained with CDy1, the mixed cells were gated into SSC^low CDy1^bright and SSC^high CDy1^dim regions, and 40,000 cells were collected by FACS from each gate for a stem cell marker Nanog gene expression analysis and colony forming assay. […]

[3] = tested on: iPSC; assay: CDy1 staining of iPSC colonies generated from Oct4-GFP transgenic mouse MEF; type: cell-based
Method: The retroviral packaging cell, PlatE cell, was maintained in DMEM containing 10% FBS, 100 U/ml penicillin, 100 μg/ml streptomycin, 10 μg/mlblasticidin S, and 1 μg/ml puromycin. For the generation of retroviruses, 40 μg of each retroviral vector expressing each mouse Oct4, Sox2, Klf4, and c-Myc was transfected together using Lipofectamine™ 2000 (Invitrogen, Carlsbad, Calif.) into PlatE cells plated at a density of 8×10^6 cells/10 cm cell culture dish and cultured overnight in DMEM containing 10% FBS. Medium was changed five hours after transfection to normal maintenance medium and incubated further in a humidified atmosphere of 5% CO2 and 95% air at 37° C. Culture supernatant was harvested 48 hours after transfection, filtered through a 0.45 μm syringe filter, concentrated by using amicon ultra-15 Centrifugal filter units (Millipore, Billerica, Mass.), and stored at −80° C. until use. For reprogramming, MEFs prepared from E13.5 B6; CBA-Tg(Pou5f1-EGFP)2Mnn/J mouse (Jackson Laboratory, Bar Harbor, Me.) embryo were infected with retrovirus mixture eight hours later. Polybrene (Sigma-Aldrich, St. Louis, Mo.) was added at a concentration of 10 μg/ml to increase virus adsorption. Infected MEFs were harvested 48 hours later by trypsinization and plated onto mytomycin C treated MEF feeder cells. The cells were maintained in mESC culture medium that was changed every day until designated time points.
The reprogramming was performed in a 6-well culture dish by retroviral introduction of four transcriptions factors: Oct4, Sox2, Klf4, and c-Myc (Takahashi et al., “Induction of Pluripotent Stem Cells from Mouse Embryonic and Adult Fibroblast Cultures by Defined Factors,” Cell, 126(4):663-676 (2006), which is hereby incorporated by reference in its entirety). iPSC generation was verified by GFP expression, alkaline phosphatase assay, and immunostaining of SSEA-1 at 17 days post infection (“dpi”). […] When the 155 colonies grown in 6-well plate cells were treated with CDy1 at 17 dpi, 101 colonies (65%) were both CDy1 and GFP positive, 26 (17%) were CDy1-only positive, 4 (3%) were GFP-only positive and 24 (15%) were negative both for CDy1 and GFP, despite the fact that the morphology of the colonies was indistinguishable (FIG. 9).
In a cell culture treated with CDy1 at an earlier time point of iPSC generation (10 dpi), increasing numbers of CDy1-stained colonies started to show GFP signal during the following days (FIG. 10A). To perform a more systematic analysis, the cells were stained with CDy1 at 2 dpi (i.e., when iPSC was not distinguishable by any means) and the CDy1 and GFP signals were tracked by daily acquisition of cell images using an ImageXpress^MICRO system. At 10 dpi, when small colonies started to appear, 342 CDy1-positive but GFP-negative colonies were selected and their GFP expression was followed until 25 dpi. An increasing number of colonies started to express GFP during this period, and 338 (99%) out of the 342 tracked colonies were GFP-positive at 25 dpi (FIG. 10B).

[4] = 40,000 cells collected by FACS, three days culture

CCCCN(CCCC)c1ccc2c(-c3cccc(CN4CCOCC4)c3)c3ccc(=N)cc-3oc2c1 [CDy1] was tested, and the “higher fluorescence intensity in mESC than in MEF (ratio of mESC to MEF fluorescence mean values)” value [1] was 12.2 fold, the “mESC selectivity (in words)” value ([1]; mESC vs MEF) was “most selective for mESCs among the 20 hit compounds” and the “number of colonies from SSChigh CDy1dim cells” value [2, 4] was 6. The “number of colonies from SSClow CDy1bright cells” value [2, 4] was 604, the “Nanog expression in SSClow CDy1bright cells versus SSChigh CDy1dim cells” value ([2]; RT-PCR) was “much higher” and the “earliest CDy1 staining of the cells that expressed GFP at 12 dpi” value [3] was 6 dpi. For the same compound, the “differences in number of GFP-positive colonies or cell morphology compared to untreated iPSC” value ([3]; 10 to 25 dpi) was “no detectable differences”, the “selective staining of iPSC colony” value ([3]; 17 dpi) was “selectively stained the iPSC colony” and the “colonies CDy1-only positive (number)” value ([3]; 17 dpi, of 155 colonies) was 26. For the same compound, the “colonies CDy1-only positive (percent)” value ([3]; 17 dpi, of 155 colonies) was 17%, the “colonies GFP-only positive (number)” value ([3]; 17 dpi, of 155 colonies) was 4 and the “colonies GFP-only positive (percent)” value ([3]; 17 dpi, of 155 colonies) was 3%. For the same compound, the “colonies both CDy1 and GFP positive (number)” value ([3]; 17 dpi, of 155 colonies) was 101 and the “colonies both CDy1 and GFP positive (percent)” value ([3]; 17 dpi, of 155 colonies) was 65%.
